Data reported in PubChem BioAssay AID328 (DTP/NCI, 2004).
Inconclusive results and toxic doses are left out. Non-standard residues stand in square brackets, D forms with d. Residues, ends and D or L forms follow the SMILES beside them. *: point of attachment. Nle = CCCC[CH](N)C(=O)O; Cbz = O=C(OCc1ccccc1)*; OBn = c1ccc(CO*)cc1

System: BDF1 mice, P388 leukemia ip, median survival T/C
Assay: NCI In Vivo Anticancer Drug Screen. Data for tumor model P388 Leukemia (intraperitoneal) in B6D2F1 (BDF1) mice
Details: endpoint: median survival time, higher = longer survival
Procedure, shortened: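 Survival ratio, drug arm over vehicle arm, in mice with a transplanted tumour.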

[1] = dose: 50.0 mg/kg/injection, schedule: Q01DX009 (ip), vehicle: saline
[2] = dose: 100.0 mg/kg/injection, schedule: Q01DX009 (ip), vehicle: Klucel (hydroxypropylcellulose) (HPC)
[3] = dose: 100.0 mg/kg/injection, schedule: Q04DX003 (ip), vehicle: Klucel (hydroxypropylcellulose) (HPC)
[4] = dose: 200.0 mg/kg/injection, schedule: Q01DX009 (ip), vehicle: Klucel (hydroxypropylcellulose) (HPC)
[5] = dose: 200.0 mg/kg/injection, schedule: Q04DX003 (ip), vehicle: Klucel (hydroxypropylcellulose) (HPC)
[6] = dose: 400.0 mg/kg/injection, schedule: Q01DX009 (ip), vehicle: Klucel (hydroxypropylcellulose) (HPC)
[7] = dose: 400.0 mg/kg/injection, schedule: Q04DX003 (ip), vehicle: Klucel (hydroxypropylcellulose) (HPC)
[8] = dose: 25.0 mg/kg/injection, schedule: Q01DX009 (ip), vehicle: Klucel (hydroxypropylcellulose) (HPC)
[9] = dose: 50.0 mg/kg/injection, schedule: Q01DX009 (ip), vehicle: Klucel (hydroxypropylcellulose) (HPC)
[10] = dose: 100.0 mg/kg/injection, schedule: Q04DX003 (ip), vehicle: other
[11] = dose: 200.0 mg/kg/injection, schedule: Q04DX003 (ip), vehicle: other
[12] = dose: 50.0 mg/kg/injection, schedule: Q01DX009 (ip), vehicle: saline with Tween-80
[13] = dose: 100.0 mg/kg/injection, schedule: Q01DX009 (ip), vehicle: other
[14] = dose: 100.0 mg/kg/injection, schedule: Q04DX003 (ip), vehicle: saline with Tween-80
[15] = dose: 200.0 mg/kg/injection, schedule: Q04DX003 (ip), vehicle: saline with Tween-80

CSN1C(=O)CCC1=O
T/C (dose: 50.0 mg/kg/injection, schedule: Q04DX002 (ip), vehicle: saline): 107 % of control | T/C (dose: 100.0 mg/kg/injection, schedule: Q04DX002 (ip), vehicle: saline): 100 % of control | T/C (dose: 200.0 mg/kg/injection, schedule: Q04DX002 (ip), vehicle: saline): 109 % of control

NC(=O)CNC1=C(N2CC2)C(=O)C(NCC(N)=O)=C(N2CC2)C1=O
T/C (dose: 2.0 mg/kg/injection, schedule: Q01DX009 (ip), vehicle: saline): 171 % of control | T/C (dose: 4.0 mg/kg/injection, schedule: Q01DX009 (ip), vehicle: saline): 166 % of control | T/C (dose: 8.0 mg/kg/injection, schedule: Q01DX009 (ip), vehicle: saline): 116 % of control

Clc1ccc(-c2nc3ccccc3cc2N2CCCCC2)cc1
T/C (dose: 100.0 mg/kg/injection, schedule: Q01DX001 (ip), vehicle: other): 110 % of control | T/C (dose: 200.0 mg/kg/injection, schedule: Q01DX001 (ip), vehicle: other): 105 % of control | T/C (dose: 400.0 mg/kg/injection, schedule: Q01DX001 (ip), vehicle: other): 105 % of control

Nc1ccc(C2=NN(c3ccccc3)CN(c3ccccc3)N2)cc1
T/C (dose: 100.0 mg/kg/injection, schedule: Q01DX001 (ip), vehicle: saline with Tween-80): 101 % of control | T/C (dose: 200.0 mg/kg/injection, schedule: Q01DX001 (ip), vehicle: saline with Tween-80): 107 % of control | T/C (dose: 400.0 mg/kg/injection, schedule: Q01DX001 (ip), vehicle: saline with Tween-80): 102 % of control

CCOC(=O)C1OC(n2cnc3c(N)ncnc32)C(O)C1O (configuration not stated)
T/C (dose: 6.25 mg/kg/injection, schedule: Q01DX009 (ip), vehicle: saline): 103 % of control | T/C (dose: 12.5 mg/kg/injection, schedule: Q01DX009 (ip), vehicle: saline): 94 % of control | T/C (dose: 25.0 mg/kg/injection, schedule: Q01DX009 (ip), vehicle: saline): 94 % of control | T/C [1]: 92 % of control

S=C(NNc1ccccc1)NC1CCCCC1
T/C (dose: 100.0 mg/kg/injection, schedule: Q01DX001 (ip), vehicle: Klucel (hydroxypropylcellulose) (HPC)): 100 % of control | T/C [2]: 86 % of control | T/C [3]: 110 % of control | T/C (dose: 200.0 mg/kg/injection, schedule: Q01DX001 (ip), vehicle: Klucel (hydroxypropylcellulose) (HPC)): 100 % of control | T/C [4]: 90 % of control | T/C [5]: 105 % of control | T/C (dose: 400.0 mg/kg/injection, schedule: Q01DX001 (ip), vehicle: Klucel (hydroxypropylcellulose) (HPC)): 104 % of control | T/C [6]: 100 % of control | T/C [7]: 110 % of control

Cc1ncc(CO)c(C)c1O
T/C (dose: 12.5 mg/kg/injection, schedule: Q01DX010 (ip), vehicle: saline): 100 % of control | T/C (dose: 25.0 mg/kg/injection, schedule: Q01DX010 (ip), vehicle: saline): 100 % of control | T/C (dose: 50.0 mg/kg/injection, schedule: Q01DX010 (ip), vehicle: saline): 100 % of control | T/C (dose: 100.0 mg/kg/injection, schedule: Q01DX010 (ip), vehicle: saline): 100 % of control

CC1(C)SC(C)(C)N(C=O)C1C(=O)O (configuration not stated)
T/C [2]: 90 % of control | T/C [3]: 91 % of control | T/C [4]: 109 % of control | T/C [5]: 95 % of control | T/C [6]: 90 % of control | T/C [7]: 91 % of control

Cc1ccc(N2C=Nc3ccc(C)cc3C2)cc1
T/C (dose: 10.0 mg/kg/injection, schedule: Q01DX009 (ip), vehicle: Klucel (hydroxypropylcellulose) (HPC)): 100 % of control | T/C (dose: 15.0 mg/kg/injection, schedule: Q01DX009 (ip), vehicle: Klucel (hydroxypropylcellulose) (HPC)): 100 % of control | T/C [8]: 90 % of control | T/C (dose: 40.0 mg/kg/injection, schedule: Q01DX009 (ip), vehicle: Klucel (hydroxypropylcellulose) (HPC)): 100 % of control | T/C [9]: 118 % of control | T/C [2]: 109 % of control | T/C [10]: 109 % of control | T/C [4]: 90 % of control | T/C [11]: 104 % of control

ClCC#Cc1ccccc1
T/C (dose: 12.5 mg/kg/injection, schedule: Q01DX009 (ip), vehicle: Klucel (hydroxypropylcellulose) (HPC)): 109 % of control | T/C [8]: 86 % of control | T/C [9]: 100 % of control

COc1cc2ccc(CC3NCCc4cc5c(cc43)OCO5)cc2cc1OC (configuration not stated)
T/C (dose: 22.0 mg/kg/injection, schedule: Q01DX009 (ip), vehicle: saline with Tween-80): 105 % of control | T/C (dose: 33.0 mg/kg/injection, schedule: Q01DX009 (ip), vehicle: saline with Tween-80): 110 % of control | T/C (dose: 50.0 mg/kg/injection, schedule: Q01DX009 (ip), vehicle: other): 100 % of control | T/C [12]: 115 % of control | T/C (dose: 75.0 mg/kg/injection, schedule: Q01DX009 (ip), vehicle: saline with Tween-80): 110 % of control | T/C [13]: 100 % of control | T/C [10]: 118 % of control | T/C [11]: 118 % of control

CN(C)c1ccc(CC2Cc3ccccc3C2=O)cc1 (configuration not stated)
T/C [13]: 104 % of control | T/C [14]: 90 % of control | T/C (dose: 200.0 mg/kg/injection, schedule: Q01DX009 (ip), vehicle: other): 108 % of control | T/C [15]: 100 % of control | T/C (dose: 400.0 mg/kg/injection, schedule: Q04DX003 (ip), vehicle: saline with Tween-80): 95 % of control

CCOC(=O)C1(c2ccccc2)CCCN(C)CC1 (configuration not stated)
T/C (dose: 100.0 mg/kg/injection, schedule: Q04DX003 (ip), vehicle: saline): 94 % of control

CCCCCCCC(=O)Nc1ccc(C)cc1C
T/C [10]: 95 % of control | T/C [11]: 104 % of control | T/C (dose: 400.0 mg/kg/injection, schedule: Q04DX003 (ip), vehicle: other): 95 % of control

CC(C)(C)CN1CN(CC(C)(C)C)CN(CC(C)(C)C)C1
T/C (dose: 100.0 mg/kg/injection, schedule: Q04DX002 (ip), vehicle: saline with Tween-80): 94 % of control | T/C (dose: 200.0 mg/kg/injection, schedule: Q04DX002 (ip), vehicle: saline with Tween-80): 97 % of control | T/C (dose: 400.0 mg/kg/injection, schedule: Q04DX002 (ip), vehicle: saline with Tween-80): 94 % of control

CNc1ccccc1C#N
T/C [2]: 100 % of control | T/C [3]: 91 % of control | T/C [4]: 100 % of control | T/C [7]: 91 % of control

Nc1ccn(CC(=O)c2ccc(Cl)s2)c(=O)n1
T/C (dose: 50.0 mg/kg/injection, schedule: Q01DX009 (ip), vehicle: water): 100 % of control | T/C (dose: 100.0 mg/kg/injection, schedule: Q01DX009 (ip), vehicle: water): 108 % of control | T/C (dose: 200.0 mg/kg/injection, schedule: Q01DX009 (ip), vehicle: water): 100 % of control

NCCOCC(N)C(=O)O (configuration not stated)
T/C [1]: 109 % of control | T/C (dose: 100.0 mg/kg/injection, schedule: Q01DX009 (ip), vehicle: saline): 105 % of control | T/C (dose: 200.0 mg/kg/injection, schedule: Q01DX009 (ip), vehicle: saline): 98 % of control

COc1ccc2ccccc2c1C1NC(=O)c2ccccc2N1 (configuration not stated)
T/C [8]: 115 % of control | T/C [9]: 100 % of control | T/C [4]: 166 % of control

CCCCC(NC(=O)C1CCCN1C(=O)OCc1ccccc1)C(=O)OCc1ccccc1 (stereo not drawn) (Cbz-Pro-[Nle]-OBn; configuration not given here)
T/C (dose: 50.0 mg/kg/injection, schedule: Q01DX005 (ip), vehicle: saline with Tween-80): 88 % of control | T/C (dose: 100.0 mg/kg/injection, schedule: Q01DX005 (ip), vehicle: saline with Tween-80): 101 % of control | T/C (dose: 200.0 mg/kg/injection, schedule: Q01DX005 (ip), vehicle: saline with Tween-80): 97 % of control

Cc1[o+]c(C)c2c(c1C)-c1ccccc1C2=O
T/C (dose: 6.25 mg/kg/injection, schedule: Q01DX009 (ip), vehicle: saline with Tween-80): 104 % of control | T/C (dose: 12.5 mg/kg/injection, schedule: Q01DX009 (ip), vehicle: saline with Tween-80): 113 % of control | T/C (dose: 25.0 mg/kg/injection, schedule: Q01DX009 (ip), vehicle: saline with Tween-80): 98 % of control | T/C (dose: 25.0 mg/kg/injection, schedule: Q04DX003 (ip), vehicle: saline with Tween-80): 109 % of control | T/C [12]: 106 % of control | T/C (dose: 100.0 mg/kg/injection, schedule: Q01DX009 (ip), vehicle: saline with Tween-80): 120 % of control | T/C [14]: 100 % of control | T/C (dose: 200.0 mg/kg/injection, schedule: Q01DX009 (ip), vehicle: saline with Tween-80): 104 % of control | T/C [15]: 116 % of control
